One data set addresses T1, CelR (Thermobifida fusca, UniProt O87590).
T1 sequence (O87590 1-340): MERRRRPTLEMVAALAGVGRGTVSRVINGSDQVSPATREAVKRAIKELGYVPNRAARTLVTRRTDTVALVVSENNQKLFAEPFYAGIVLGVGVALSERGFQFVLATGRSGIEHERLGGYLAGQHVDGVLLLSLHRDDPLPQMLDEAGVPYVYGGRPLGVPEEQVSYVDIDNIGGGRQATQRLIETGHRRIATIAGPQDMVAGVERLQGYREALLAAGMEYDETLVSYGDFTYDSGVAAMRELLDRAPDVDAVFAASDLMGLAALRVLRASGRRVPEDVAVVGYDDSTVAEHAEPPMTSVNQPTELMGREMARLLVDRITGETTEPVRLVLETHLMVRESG
The note with it: Spiridonov et al. 1999; cited from earlier work.

Data set [1] relates to celC, glyR3, licA, orf4, manB and celT transcripts. The data set can be described thus: RT-qPCR, inducibility of gene expression in C. thermocellum grown on different substrates. It is filed as cell-based, Clostridium thermocellum. Conditions: substrate 0.5%, time course of 50 hrs, compared with 1-3 linked sugars, FIG. 2. The method, then:
FIG. 2 is a graph showing RT-qPCR results detailing the inducibility of expression of celC, glyR3 and licA when Clostridium thermocellum is grown on a 1-3 linked sugar: lichenan, laminarin and laminaribiose, compared to the 1-4 linked sugar, cellobiose. The bacterium was grown on the substrates for a time course of 50 hrs. Each 10 hours a sample was taken and the RNA harvested, DNase I digested, subjected to reverse transcription, and then qPCR. Columns left to right for each substrate represent relative transcription levels of celC, glyR3, licA orf4 manB and ceIT, respectively. The qPCR levels are all relative to the 16S transcript in C. thermocellum.
To test the effect of growth substrate on the inducibility of the expression of celC, glyR3, licA, orf4, manB, and celT genes in C. thermocellum, C. thermocellum was grown on substrates containing either a 1-4 linked sugar (cellobiose) or a 1-3 linked sugar (laminarin, lichenan, and laminaribiose). RT-qPCR was carried out on the cells to determine the level of 16S transcripts of the genes, as follows.
The bacterium was grown on the substrates for a time course of 50 hrs. Each 10 hrs a sample was taken. Cultures were centrifuged to collect the cells. Everything used from this point forward was RNase free. […] RNA concentration was measured using a Hitachi U-2000 spectrophotometer at 260/280 nm. […]
On the technique in general: Real-time PCR tracks product formation cycle by cycle.

For data set [2], the system named is rGlyR3-celC promoter complex. The data set can be described thus: EMSA, effect of sugars on the rGlyR3-celC promoter complex. It is filed as binding, Clostridium thermocellum. Conditions: for effect of sugar on the rGlyR3-celC promoter binding reaction: 15 mM sugar, 5 ng 100 bp celC promoter DNA, 0.5 ng rGlyR3, FIG. 17. The method, then:
The EMSA analyzing biotin labeled DNA fragments. Lane 1, no protein and 5 ng DNA; Lanes 2-12 contain 5 ng 100 bp celC promoter DNA, 0.5 ng rGlyR3 and 15 mM of their respected sugars.
(§1) All EMSA experiments described herein were performed using a 4% polyacrylamide gel and Tris-Borate-EDTA buffer. EMSA reactions all contained: 500 ng poly (dI-dC), 1× Lightshift EMSA kit binding buffer (Pierce), 1× Lightshift loading dye (Pierce), optimized amounts of DNA probe, protein, and saccharides as specified in figure legends.
The binding of the rGlyR3 protein was inhibited by laminaribiose. Several sugars were tested to see if they could inhibit the rGlyR3-celC promoter complex.
On the technique in general: Mobility shift assays separate free from complexed probe on a gel.

The next data set relates to celC transcription. As to the kind of experiment: In vitro transcription assay (RT-qPCR readout). It is filed as biochemical, Clostridium thermocellum. The method, then:
The baseline transcription mixture consists of: rNTPs, transcription buffer, 1 ug of 850 bp DNA containing celC and its promoter region, 10 ul C. thermocellum cell lysate (grown on cellobiose). After transcription, the RNA was harvested, DNase I digested, used in a Reverse Transcriptase reaction and then in qPCR.
A DNA template for in vitro transcription was created using the following primers (SEQ ID NO:30): Invt-F-[…]; (SEQ ID NO:31): Invt-R-CCAGTGGGCTTTCTGATGC) to amplify the 200 bp celC promoter along with 650 bp of the celC gene. PCR used a standard reaction for Extensor Hi-Fidelity Enzyme with genomic DNA as template. Each in vitro transcription assay contained: 10 μl C. thermocellum cell lysate (cellobiose grown culture), 2 μl RNase Out (Invitrogen, Carlsbad, Calif.), 1× RNA polymerase buffer, 1 μg of DNA template, 25 nM rNTP's, differing amounts of rGlyR3, differing amounts of laminaribiose, and DEPC water to a volume of 50 μl. The reactions were incubated at 60° C. for 50 minutes. After incubation the resulting RNA was isolated using the previously described Trizol method. The isolated RNA was subjected to DNase I digestion and a standard reverse transcription reaction as described above. Using the qPCR protocol already outlined, with primers for celC, it was possible to show the amount of transcript created for each reaction.

Data set [3] relates to rGlyR3-celC promoter complex. The data set can be described thus: EMSA rGlyR3 binding site competition assay. Further details: species or system Clostridium thermocellum. Conditions: 100x unlabeled competitor, 0.5 ng rGlyR3, FIG. 16. The method, then:
FIG. 16 is a gel showing the results of an EMSA rGlyR3 binding site competition assay. A gel shift competition assay was used to analyze specificity of binding and confirm the DNase I footprint results. All lanes contain biotin labeled 100 bp celC promoter fragment containing the binding site. Lane 1, no protein; Lane 2, 0.5 ng rGlyR3; Lane 3, 0.5 ng rGlyR3 and 100× unlabeled 18 bp binding site; Lane 4, 0.5 ng rGlyR3 and 100 × control fragment (18 bp piece of original 100 bp region, contains no part of putative binding site).
as §1
The 18 bp sequence corresponds to (SEQ ID NO:36): AATGAACGC GCGTACATT.

The subject of data set [4] is 200 bp fragment of the celS structure gene. As to the kind of experiment: EMSA, rGlyR3 with celS structure gene fragment as probe. It is filed as binding, Clostridium thermocellum. The note with it: FIG. 11, lanes 5 and 6. The method, then:
as §1
(§2) The dissociation constant was determined as the concentration of GlyR3 needed to shift 50% of the celC promoter region in the EMSA.

The test system of the next data set is celC promoter region. As to the kind of experiment: EMSA, binding of rGlyR3 to the celC promoter region. Also noted: species or system Clostridium thermocellum. The method, then: Gel Shift, or Band Shift Assay, or Electrophoretic Mobility Shift Assay (EMSA) is a technique for studying gene regulation and determining protein:DNA interactions. The assay is based on the observation that complexes of protein and DNA migrate through a non-denaturing polyacrylamide gel more slowly than free DNA fragments or double-stranded oligonucleotides. The gel shift assay is carried out by first incubating a protein(s) (such as nuclear or cell extract) with a 32^P end-labeled DNA fragment containing the putative protein binding site. The reaction products are then analyzed on a non-denaturing polyacrylamide gel. The specificity of the DNA-binding protein for the putative binding site is established by competition experiments using DNA fragments or oligonucleotides containing a binding site for the protein of interest or other unrelated DNA sequences.
as §1
EMSA gels were electroblotted onto Biodyne B membrane (Pall Corporation). Signal development was accomplished using the Lightshift Chemiluminescent EMSA kit protocol (Pierce). Kodak Biomax film captured the luminescence for viewing.
Probes for EMSA were created using PCR with Thermostart Taq (ABgene) as a polymerase. The standard Thermostart protocol was used with varying extension times (1 kb/minute rule always followed) and different annealing temperatures (57° C.-62° C.). Primers were synthesized with a 5′ biotin label by Invitrogen (Carlsbad, Calif.). Primers (5′-3′) used: […]
For probes that contained just the 18 bp binding site, complementary DNA fragments were synthesized and annealed by heating to 94 C and then cooling:
as §2

Entries after “also recorded” stand apart in the source; their conditions may differ.

As for `O=C[C@H](O)[C@@H](O)[C@H](O[C@@H]1O[C@H](CO)[C@@H](O)[C@H](O)[C@H]1O)[C@H](O)CO` [cellobiose], the “concentration inhibiting binding of CelR to its target DNA sequence” value at CelR is 0.2 to 0.5 mM. Moreover, the “transcript level of the gene cluster relative to 16S transcript” value in data set [1] is reported as “less of the transcript containing the genes is produced”.
With `OC[C@H]1O[C@@H](OC[C@H]2OC(O)[C@H](O)[C@@H](O)[C@@H]2O)[C@H](O)[C@@H](O)[C@@H]1O` (some centres unmarked) [gentibiose], in data set [2], the “effect of sugar on the rGlyR3-celC promoter binding reaction” value (shortened to “effect of sugar”) is “no effect”.
Consider `OC[C@H]1O[C@@H](O[C@H]2[C@H](O)[C@@H](O)C(O)O[C@@H]2CO)[C@H](O)[C@@H](O)[C@H]1O` (some centres unmarked) [lactose], for which the “effect of sugar” value in data set [2] was “no effect”.
Take `OC[C@H]1O[C@@H](O[C@H]2[C@H](O)[C@@H](CO)OC(O)[C@@H]2O)[C@H](O)[C@@H](O)[C@@H]1O` (some centres unmarked) [laminaribiose]: in the data set on celC transcription (5 mM laminaribiose in addition to 400 ng GlyR3, FIG. 3), the “effect on celC transcription in presence of GlyR3” value is “transcription returned to baseline levels or greater”. In addition, the “effect of sugar” value in data set [2] is given as “severely reduced the formation of the DNA-protein complex”. Moreover, in data set [2] (FIG. 15), the “effect on binding of GlyR3 to the 18 bp binding site” value was “inhibited”. For the same molecule, the “effect of laminaribiose on GlyR3-100 bp celC promoter interaction” value in data set [2] (GlyR3 0.5 ng, DNA 5 ng, increasing laminaribiose, FIG. 9) is “inhibited; also recorded: DNA-protein complex diminished as the concentration of laminaribiose increased”.
Turning to `OC[C@H]1O[C@H](O[C@H]2[C@H](O)[C@@H](O)[C@H](O)O[C@@H]2CO)[C@H](O)[C@@H](O)[C@@H]1O` [maltose], the “effect of sugar” value in data set [2] is “no effect”.
Consider `OC[C@H]1O[C@@](CO)(O[C@H]2O[C@H](CO)[C@@H](O)[C@H](O)[C@H]2O)[C@@H](O)[C@@H]1O` [sucrose], for which the “effect of sugar” value in data set [2] is recorded as “no effect”.
Turning to “unlabeled 18 bp binding site: 18 bp near perfect palindromic sequence of the celC promoter, SEQ ID NO:36: AATGAACGC GCGTACATT (DNA AATGAACGCGCGTACATT; listed as DNA, chemistry not given here)”, the “competition for the shifted band of the 100 bp celC promoter fragment” value in data set [3] is reported as “able to compete out the shifted band”.

B1: GlyR3: C. thermocellum LacI-like repressor protein, amino acid sequence SEQ ID NO:3; rGlyR3 is the recombinant form expressed in E. coli (protein)
chain: MTSEEIAKLCGVSRATVSRVINNSPNVKEETRQKILAVIKEKNYVPIAPARRLAGIDSNIIGLFVLDIDISESKSRVSESTYFSRLINLIIDQANNFGFQVLVSIITSQKQLSEIRNLFMSRTIFSGIFIGAFNDEIQLDDDIIMQHPTIIIDRQSERMVKKPNRLVVNLDNFEGAYNATQFLIKLGHTRIGHISGDLRKLSGIERYEGYKKALEDAGLGFDKNLVREGNFLDDSGYRLAREILKENVTAIFCANDVMAISAIKAIKETGLSVPDDISVIGFDNTAIGNYIMPALTTVNAPLEHIAEACIESLKYFCEHKHFKQKEIRVKTDLIIRDSTKRALEF
modifications: C. thermocellum
notes: rGlyR3 is the recombinant form expressed in E. coli
On to B1, for which, in data set [4], the “binding to 200 bp fragment of the celS structure gene” value was “does not bind”. Further, the “effect on transcription of the celC gene in vitro” value in the data set on celC transcription (400 ng GlyR3, FIG. 3) is reported as “can inhibit transcription”. In addition, in the data set on celC promoter region (0.5 ng rGlyR3, 5 ng of each probe, FIG. 11), the “binding to first and second halves of the celC promoter (band shift)” value was “creates a shifted band with both probes”. Further, in the data set on celC promoter region (1 ng protein, 5 ng DNA, FIG. 12), the “binding to the 200 bp celC promoter region” value was “binds”. In the data set with celC promoter region (FIG. 13), the “binding to a control fragment of 18 bp located within the celC promoter” value is listed as “no binding” and the “binding to the 18 bp DNA fragment (binding site)” value is recorded as “dose dependent binding”.

The values are drawn from patent US8309324B2, “Promoters and proteins from Clostridium thermocellum and uses thereof” (University of Rochester, priority 2004, dated 2012).
